Columns and labels:
sebum [1] = test: Testing and evaluation of the antiseborrhoeic effect: percentage sebum reduction from browning of the backs of male rats; format: in vivo; conditions: Rattus norvegicus, 336 h, topical, male Wistar rats, 9 applications in 2 weeks; for inhibition in vivo at 0.05 % strength: Concentration 0.05 % by weight; for inhibition in vivo at 0.001 % strength: Concentration 0.001 % by weight; for inhibition in vivo at 0.005 % strength: Concentration 0.005 % by weight; for inhibition in vivo at 0.01 % strength: Concentration 0.01 % by weight; for inhibition in vivo at 0.1 % strength: Concentration 0.1 % by weight; for inhibition in vivo at 0.5 % strength: Concentration 0.5 % by weight; for inhibition in vivo at 0.02 % strength: Concentration 0.02 % by weight
Text: The test is based on the observation that male rats secrete a brownish sebum so that the degree of greasiness of the skin may readily be visually assessed as browning of the skin. […] At the same time, only very small quantities of lipids can be extracted from the hair cut off; cf. J Soc. Cosmet. Chem. 34, 127-135 (1983)).
Male Wistar rats having a body mass of 220 to 230 grams at the beginning of the test were used as the test animals. The test substances, dissolved in a mixtures of equal volumes of ethanol and acetone, were brushed onto half of the back of each of 6 rats for each substance and concentration tested. The other half of the back of each tested rat was treated with the solvent only. One application was made on each tested rat on each of Monday through Friday of one week and on each of Monday through Thursday in the next week; the rats were then evaluated on Friday of the second week. For evaluation, the rats were shaved on their backs and flanks and visually assessed independently by a panel of examiners (6 people) under double-blind conditions. The degree of browning on the backs of the rats was visually assessed as a measure of the sebum coating. A group of six rats of the same type treated on both sides with the solvent only was used for control.
The intensities of the brown color on each control rat, and on the side of each other tested rat that had been treated with a solution containing a substance to be tested for its sebosuppressive ability, were scored according to the following scale:
The sum of the scores for the six treated rats in each group was divided by the sum of the scores for the six control rats for that group, this quotient was multiplied by 100, and that result subtracted from 100, to give the percentage sebum reduction as recorded in the tables below.

sebum [2] = conditions: male rats systematically treated; cited from earlier work

Row | Structure (SMILES) | inhibition in vivo at 0.05 % strength (sebum [1]) | inhibition in vivo at 0.01 % strength (sebum [1]) | further results
1 | COC(=O)CCc1ccc(OCC=C(C)CCC=C(C)CCC=C(C)C)cc1 [Example 1.11, 3-(4-farnesyloxyphenyl)-propionic acid methyl ester] | 86% |  | 
2 | CC#C[C@]1(O)CC[C@H]2[C@@H]3CCc4cc(O)ccc4[C@H]3CC[C@@]21C [estrogen] |  |  | skin colour after shearing (browning by sebum) (sebum [2]): only show the normal light, pink-colored skin after shearing
3 | CC(C)=CCCC(C)=CCCC(C)=CCOc1ccc(C=CC(=O)O)cc1 [Example 1.14, 4-farnesyloxycinnamic acid] | 73% |  | 
4 | CC(CCC1C(C)CCCC1(C)C)Oc1ccc(C(=O)O)cc1 (stereo not shown) [Example 1.4, 4-(4-(1,3,3-trimethyl-2-cyclohexyl)-2-butoxy)-benzoic acid] | 100% | 93% | inhibition in vivo at 0.001 % strength (sebum [1]): 73%; inhibition in vivo at 0.005 % strength (sebum [1]): 88%
5 | OCC=Cc1ccc(OCC2CCCCC2)cc1 [Example 1.7, 4-cyclohexylmethoxycinnamic alcohol] |  |  | inhibition in vivo at 0.1 % strength (sebum [1]): 53%; inhibition in vivo at 0.5 % strength (sebum [1]): 66%
6 | COC(=O)c1ccc(OC(C)CCC2C(C)CCCC2(C)C)cc1 (stereo not shown) [Example 1.1, 4-[4-(1,1,3-trimethyl-2-cyclohexyl)-2-butoxy]-benzoic acid methyl ester] | 99% | 25% | 
7 | CC(C)=CCCC(C)=CCCC(C)=CCOc1ccc(CCC(=O)O)cc1 [Example 1.13, 3-(4-farnesyloxyphenyl)-propionic acid] | 68% |  | 
8 | COC(=O)c1ccc(OC/C=C(\C)CCC=C(C)C)cc1 [Example 1.9, 4-geranyloxybenzoic acid methyl ester] |  |  | inhibition in vivo at 0.1 % strength (sebum [1]): 40%
9 | O=C(O)c1ccc(OCCCC2CCCCC2)cc1 [Example 1.6, 4-(3-cyclohexylpropyloxy)-benzoic acid] |  | 52% | inhibition in vivo at 0.005 % strength (sebum [1]): 0%; inhibition in vivo at 0.02 % strength (sebum [1]): 84%
10 | COC(=O)C=Cc1ccc(OCC=C(C)CCC=C(C)CCC=C(C)C)cc1 [Example 1.12, 4-farnesyloxycinnamic acid methyl ester] | 85% |  | 
11 | O=C(O)C=Cc1ccc(OCC2CCCCC2)cc1 [Example 1.5, 4-(cyclohexylmethoxy)-cinnamic acid] |  |  | inhibition in vivo at 0.5 % strength (sebum [1]): 15%
12 | COC(=O)c1ccc(OCCCC2CCCCC2)cc1 [Example 1.3, 4-(3-cyclohexylpropyloxy)-benzoic acid methyl ester] | 68% |  | inhibition in vivo at 0.02 % strength (sebum [1]): 0%; inhibition in vivo at 0.5 % strength (sebum [1]): 99%
13 | C/C(=C\COc1ccc(C(=O)O)cc1)CCC[C@H](C)CCC[C@H](C)CCCC(C)C [Example 1.15, 4-phytyloxybenzoic acid] | 35% |  | 
14 | COC(=O)C=Cc1ccc(OCC2CCCCC2)cc1 [Example 1.2, 4-cyclohexylmethoxycinnamic acid methyl ester] |  |  | inhibition in vivo at 0.5 % strength (sebum [1]): 29%
15 | CC(C)=CCCC(C)=CCCC(C)=CCOc1ccc(CO)cc1 [Example 1.17, 4-farnesyloxybenzyl alcohol] | 86% | 87% | inhibition in vivo at 0.001 % strength (sebum [1]): 14%; inhibition in vivo at 0.002 % strength (sebum [1]; Concentration 0.002 % by weight): 18%; inhibition in vivo at 0.005 % strength (sebum [1]): 72%
16 | COC(=O)c1ccc(OCC=C(C)CCC=C(C)CCC=C(C)C)cc1 [Example 1.8, 4-farnesyloxybenzoic acid methyl ester] | 86% | 38% | 
17 | CC(C)=CCCC(C)=CCCC(C)=CCOc1ccc(C(=O)O)cc1 [Example 1.16, 4-farnesyloxybenzoic acid] |  | 69% | 

Source: patent publication US4939171A, “Sebosuppressive topical preparations” (Henkel Kommanditgesellschaft auf Aktien, priority 1987, dated 1990)
